Test results: PMC10206162 (Nature Communications, 2023)
Read-outs that look alike come from different tables or passages of the source. Where no end group is shown, it is not given here.

Key:
[1] = molecular target: mouse NaV1.7 (Mus musculus, UniProt Q62205); experiment: cell-based; assay type: cell-based
Method: HEK293 cells stably expressing the α-subunit of mouse Nav1.7, human NaV1.6 or Nav1.7 plus the β1 subunit (SB Drug Discovery, Glasgow, United Kingdom) and Chinese Hamster Ovary (CHO) cells stably expressing human NaV1.8 plus the β3 subunit in a tetracycline-inducible system (ChanTest, Cleveland, OH, United States), were cultured were maintained on MEM supplemented with 10% heat-inactivated FBS, 2 mM L-glutamine in an incubator at 37 °C with 5% CO2 and passaged every 3–4 days (at 70–80% confluency) using TrypLE Express (Thermo Fisher Scientific).
Whole-cell patch-clamp experiments were performed using a QPatch16X automated electrophysiology platform (Sophion Bioscience, Ballerup, Denmark). The extracellular solution (ECS) contained 145 mM NaCl (replaced with 70 mM choline chloride for NaV1.7), 4 mM KCl, 2 mM CaCl2, 1 mM MgCl2, 10 mM HEPES, and 10 mM glucose (pH 7.4; osmolarity, 305 mOsm). The intracellular solution (ICS) contained 140 mM CsF, 1 mM/5 mM EGTA/CsOH, 10 mM HEPES, and 10 mM NaCl (pH 7.3) with CsOH (osmolarity, 320 mOsm). Peptides were diluted in ECS with 0.1% BSA.
Concentration-response experiments were performed using a holding potential of −90 mV and a 50-ms pulse to −20 mV ( + 10 mV for NaV1.8) every 20 s (0.05 Hz). […] Conductance-voltage curves were obtained by calculating the conductance (G) at each voltage (V) using the equation G = I/(V – Vrev), where Vrev is the reversal potential, and they were fitted with the following single or double Boltzmann equations: I = Imax/{1 + exp[(V50 − Vm)/k]} or I = {Imax(a)/[1+exp({V50 (a) – Vm}/k(a))]} + {Imax(b)/[1 + exp({V50(b) – Vm}/k(b))]}, where Imax is the maximal current after normalisation to the driving force, V50 is the half-activation potential, Vm is the membrane potential, and k is the slope factor. For statistical comparison of G-V curves, a two-tailed unpaired t-test was used.

[2] = molecular target: human NaV1.7 (Homo sapiens, UniProt Q15858); experiment: cell-based
[3] = molecular target: human NaV1.8 (Homo sapiens, UniProt Q9Y5Y9); experiment: cell-based; conditions: EC50 (potency), hNaV1.8
[4] = molecular target: human NaV1.9 (Homo sapiens, UniProt Q9UI33); assay type: cell-based
[5] = molecular target: human NaV1.6 (Homo sapiens, UniProt Q9UQD0); experiment: cell-based

Sequence of mouse NaV1.7 (Q62205 whole entry): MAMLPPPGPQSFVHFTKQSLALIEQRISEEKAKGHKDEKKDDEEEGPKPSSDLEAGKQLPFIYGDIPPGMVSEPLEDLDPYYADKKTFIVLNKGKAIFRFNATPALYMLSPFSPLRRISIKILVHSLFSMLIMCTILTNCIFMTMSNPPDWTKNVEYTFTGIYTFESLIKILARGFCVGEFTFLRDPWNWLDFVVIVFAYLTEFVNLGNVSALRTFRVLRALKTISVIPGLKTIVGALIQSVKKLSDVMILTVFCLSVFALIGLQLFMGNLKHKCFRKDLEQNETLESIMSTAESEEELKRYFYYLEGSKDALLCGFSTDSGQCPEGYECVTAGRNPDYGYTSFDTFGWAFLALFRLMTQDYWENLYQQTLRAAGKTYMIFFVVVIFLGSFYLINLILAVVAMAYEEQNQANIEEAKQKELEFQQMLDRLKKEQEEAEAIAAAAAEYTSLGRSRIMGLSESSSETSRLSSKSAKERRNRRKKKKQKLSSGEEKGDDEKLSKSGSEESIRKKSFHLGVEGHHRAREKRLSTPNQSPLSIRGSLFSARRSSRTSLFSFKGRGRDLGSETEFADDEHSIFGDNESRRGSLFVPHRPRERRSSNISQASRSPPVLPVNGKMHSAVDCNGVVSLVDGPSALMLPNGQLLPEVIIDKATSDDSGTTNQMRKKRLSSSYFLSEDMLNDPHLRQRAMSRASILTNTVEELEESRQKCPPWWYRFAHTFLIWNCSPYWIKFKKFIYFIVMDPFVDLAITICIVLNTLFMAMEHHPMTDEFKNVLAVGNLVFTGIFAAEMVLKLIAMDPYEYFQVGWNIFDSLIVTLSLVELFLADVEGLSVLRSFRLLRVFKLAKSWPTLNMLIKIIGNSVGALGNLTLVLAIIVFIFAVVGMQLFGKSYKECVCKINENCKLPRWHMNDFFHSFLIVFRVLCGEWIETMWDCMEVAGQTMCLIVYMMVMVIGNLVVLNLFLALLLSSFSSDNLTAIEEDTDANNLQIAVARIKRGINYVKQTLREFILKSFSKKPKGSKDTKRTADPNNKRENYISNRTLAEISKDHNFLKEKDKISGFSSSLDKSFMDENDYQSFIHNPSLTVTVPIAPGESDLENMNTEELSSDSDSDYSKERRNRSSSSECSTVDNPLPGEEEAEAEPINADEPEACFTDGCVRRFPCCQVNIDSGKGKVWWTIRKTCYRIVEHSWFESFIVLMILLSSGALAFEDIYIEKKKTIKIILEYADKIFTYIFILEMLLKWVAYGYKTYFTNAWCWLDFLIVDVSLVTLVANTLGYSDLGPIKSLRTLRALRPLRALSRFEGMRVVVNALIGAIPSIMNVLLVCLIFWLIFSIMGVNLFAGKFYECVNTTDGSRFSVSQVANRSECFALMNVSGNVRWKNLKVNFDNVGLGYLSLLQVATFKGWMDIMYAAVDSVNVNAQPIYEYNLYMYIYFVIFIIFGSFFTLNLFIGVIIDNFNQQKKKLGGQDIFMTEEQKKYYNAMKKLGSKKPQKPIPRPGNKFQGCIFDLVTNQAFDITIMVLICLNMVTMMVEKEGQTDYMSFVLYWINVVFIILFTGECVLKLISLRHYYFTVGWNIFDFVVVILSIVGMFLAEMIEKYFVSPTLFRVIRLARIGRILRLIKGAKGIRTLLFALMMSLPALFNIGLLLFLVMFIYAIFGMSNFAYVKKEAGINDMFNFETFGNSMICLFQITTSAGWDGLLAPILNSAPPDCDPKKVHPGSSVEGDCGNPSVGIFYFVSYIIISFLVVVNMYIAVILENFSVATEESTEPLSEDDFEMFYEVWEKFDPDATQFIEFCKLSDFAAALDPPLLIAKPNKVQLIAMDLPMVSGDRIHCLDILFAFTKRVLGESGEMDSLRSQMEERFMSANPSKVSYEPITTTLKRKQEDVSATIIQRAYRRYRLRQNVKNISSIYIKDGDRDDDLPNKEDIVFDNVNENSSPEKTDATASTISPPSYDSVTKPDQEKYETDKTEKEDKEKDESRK
Sequence of mouse NaV1.7 (Q07699 19-218, further chain): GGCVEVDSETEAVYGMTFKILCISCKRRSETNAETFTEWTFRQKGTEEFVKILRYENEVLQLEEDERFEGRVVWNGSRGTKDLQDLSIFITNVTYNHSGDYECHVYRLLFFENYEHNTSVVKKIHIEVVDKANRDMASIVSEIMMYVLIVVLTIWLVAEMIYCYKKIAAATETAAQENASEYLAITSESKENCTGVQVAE
Sequence of human NaV1.7 (Q07699 19-218): as the sequence (Q07699 19-218, further chain) above
Sequence of human NaV1.7 (Q15858 whole entry): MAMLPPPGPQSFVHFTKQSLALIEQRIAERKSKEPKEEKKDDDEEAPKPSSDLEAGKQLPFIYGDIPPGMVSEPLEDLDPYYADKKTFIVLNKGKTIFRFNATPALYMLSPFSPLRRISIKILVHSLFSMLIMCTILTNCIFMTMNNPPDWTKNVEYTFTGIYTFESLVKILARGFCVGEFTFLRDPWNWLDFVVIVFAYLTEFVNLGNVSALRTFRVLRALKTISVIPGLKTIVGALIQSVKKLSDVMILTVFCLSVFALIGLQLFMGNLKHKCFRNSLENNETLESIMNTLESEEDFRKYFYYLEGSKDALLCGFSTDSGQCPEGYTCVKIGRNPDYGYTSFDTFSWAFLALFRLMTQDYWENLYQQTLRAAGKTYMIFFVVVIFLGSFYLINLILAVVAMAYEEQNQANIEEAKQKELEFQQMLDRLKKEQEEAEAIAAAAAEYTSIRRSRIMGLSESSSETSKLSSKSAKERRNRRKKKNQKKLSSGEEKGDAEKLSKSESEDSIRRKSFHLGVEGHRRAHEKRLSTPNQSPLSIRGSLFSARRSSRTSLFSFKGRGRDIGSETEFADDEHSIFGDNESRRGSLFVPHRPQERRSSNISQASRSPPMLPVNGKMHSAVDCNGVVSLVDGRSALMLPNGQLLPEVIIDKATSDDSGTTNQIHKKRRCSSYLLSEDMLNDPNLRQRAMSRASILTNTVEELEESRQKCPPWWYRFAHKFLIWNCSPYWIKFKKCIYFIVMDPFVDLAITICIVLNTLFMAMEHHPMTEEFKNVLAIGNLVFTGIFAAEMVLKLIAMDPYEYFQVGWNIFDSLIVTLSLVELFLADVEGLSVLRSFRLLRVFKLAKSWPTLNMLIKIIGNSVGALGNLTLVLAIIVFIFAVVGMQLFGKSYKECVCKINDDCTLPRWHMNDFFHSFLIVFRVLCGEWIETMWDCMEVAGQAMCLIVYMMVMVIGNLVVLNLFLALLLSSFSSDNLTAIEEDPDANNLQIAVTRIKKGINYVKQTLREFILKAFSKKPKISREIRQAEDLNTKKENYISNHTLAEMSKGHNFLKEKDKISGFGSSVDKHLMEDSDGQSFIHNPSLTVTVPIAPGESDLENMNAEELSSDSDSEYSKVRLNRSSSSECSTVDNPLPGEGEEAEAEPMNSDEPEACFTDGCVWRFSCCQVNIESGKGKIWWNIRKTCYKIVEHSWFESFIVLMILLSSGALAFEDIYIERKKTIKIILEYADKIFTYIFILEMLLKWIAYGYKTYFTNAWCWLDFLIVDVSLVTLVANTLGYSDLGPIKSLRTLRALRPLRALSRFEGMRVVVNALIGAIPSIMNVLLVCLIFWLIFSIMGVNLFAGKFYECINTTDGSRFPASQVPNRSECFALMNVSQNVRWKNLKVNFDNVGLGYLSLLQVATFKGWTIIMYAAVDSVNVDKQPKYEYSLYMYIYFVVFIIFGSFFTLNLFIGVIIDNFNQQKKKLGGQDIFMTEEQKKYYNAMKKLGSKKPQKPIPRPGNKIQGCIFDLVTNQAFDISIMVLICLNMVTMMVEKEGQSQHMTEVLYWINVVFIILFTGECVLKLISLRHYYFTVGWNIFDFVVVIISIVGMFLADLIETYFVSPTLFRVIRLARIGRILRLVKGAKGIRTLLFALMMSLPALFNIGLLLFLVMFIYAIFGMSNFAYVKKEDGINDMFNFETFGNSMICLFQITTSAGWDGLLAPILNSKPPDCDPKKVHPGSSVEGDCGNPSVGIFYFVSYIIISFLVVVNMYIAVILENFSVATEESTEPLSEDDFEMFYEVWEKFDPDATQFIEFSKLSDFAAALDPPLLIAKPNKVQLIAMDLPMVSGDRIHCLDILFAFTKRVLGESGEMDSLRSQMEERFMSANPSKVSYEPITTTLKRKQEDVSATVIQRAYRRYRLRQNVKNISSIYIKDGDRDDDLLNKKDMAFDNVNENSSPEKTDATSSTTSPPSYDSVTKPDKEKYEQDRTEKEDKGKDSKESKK

Substance	EC50 [1]	mNaV1.7 sustained current, % of control peak ([1]; 3 µM peptide, step –90 to –20 mV, n = 4-5 cells, mean ± SEM, SEM)	EC50 ([1]; EC50 (potency), mNaV1.7, HEK293, hold −90 mV, pulse to −20 mV, I40-ms/Imax, mean ± SEM, SEM)	EC50 ([1]; EC50, 95% CI (profile likelihood), mNaV1.7 (I40ms), Supplementary Fig. 2f / 2i)	hNaV1.7 peak current amplitude, % of control [2]	EC50 ([2]; EC50 (potency), hNaV1.7, SEM)	hNaV1.7 sustained current (I40-ms), % of control peak ([2]; SEM)	EC50 [3]	hNaV1.9 I50-ms, % of peak ([4]; SEM)	EC50 ([5]; SEM)	EC50 ([2]; EC50 (potency), hNaV1.7)	EC50 ([2]; NaV1.7, best-fit EC50)	activity at hNaV1.9 (sustained current vs control) [4]	EC50 [5]
FLPLLILGSLLMTPPVIQAIHDAQR-NH2 [Pc1a, poneratoxin]	1160 nM	8.8 ± 2.0%	1800 ± 200 nM	718 to 2680 nM	57.8 ± 4.9%	2300 ± 400 nM	12.2 ± 1.2%	> 10000 nM	58.6 ± 4.4%	97 ± 10 nM				
GLPLLALLMTLPFIQHAITN-NH2 [Mri1a]					68.1 ± 10.6%		3.4 ± 0.7%				> 10000 nM	5600 nM	inactive	3240 nM
